Assay results taken from patent publication US20230241000A1, “GSK3 INHIBITOR-LOADED NANO FORMULATIONS AS A CANCER IMMUNOTHERAPEUTIC” (The Regents of the University of California, priority 2020, published 2023).

Assays:
Pdcd1 expression = assay: RT-qPCR of Pdcd1 in anti-CD3 activated primary murine T-cells; assay type: cell-based, C57BL/6 mouse; settings: 10 μM, 72 hours, normalized against Gapdh
Procedure: (§1) This is compatible with the translational expression of T-bet, a transcription factor that interferes in PD-1 expression (FIG. 1, panel B).
(§2) Wells of a 96-well tissue culture plate were coated with anti-mouse CD3 antibody (Ultra-LEAF, Biolegend). 7.5 μL of 1 mg/mL antibody solution was diluted in 1 mL of 1×PBS, before 50 μL of the dilution was added to each plate well for 2 hours at 37° C. The wells were then thoroughly washed 3× with 1×PBS.
(§3) T-cells were extracted from C57BL/6 mouse spleens, using a standard procedure with minor modifications (71). Two mouse spleens were mechanically disrupted and the released cells were passed through a 70 μm filter. Red blood cells were lysed using RBC lysis buffer (eBioscience) at 4° C. for 5 minutes. 10 mL of 1×PBS was added to stop the lysis process, following which cells were pelleted at 300×g for 5 minutes. […]
(§4) Cells were collected and RNA was extracted using Direct-zol RNA MiniPrep Plus kits (Zymo), as per the manufacturer's instructions. Extracted RNA was converted into cDNA using SuperScript III First-Strand Synthesis System kits (Invitrogen). cDNA from treated T-cells was analyzed by RT-PCR using a LightCycler 480 instrument (Roche) and the LightCycler 480 SYBR Green I Master kit (Roche), per manufacturer's instructions. cDNA was analyzed using forward and reverse primers for Pdcd1, Tbx21, and Gapdh as a control, as described previously (10, 14). […]

[1] = tested on: CD8+ T-cells in MC38 tumors; assay: Flow cytometry of tumor-infiltrating CD8+ T-cells in MC38 tumors; assay type: in vivo, C57BL/6 mice
Text: In order to address the change in the immunological landscape with treatment, we asked whether sAZD1080 could impact the immune parameters that underpin treatment efficacy for immune checkpoint blocking antibodies. These include the CD8^+ cell number, the abundance of PD-1 expression on these cells, perforin release and the generation of cancer cell death, as reflected by activated caspase 3. For the first analysis, tumor cell digests were used to assess the number of CD8^+/CD107a^+/granzyme B^+ lymphocytes by flow cytometry (14, 30). […] In order to assess the status of PD-1 expression on CD8+ cells, flow cytometry was used to assess the % of […] cells in the tumor digests (14, 31).
Tumors were harvested from MC38 mice after sacrifice. Tumors larger than 100 mm^3 were divided in two, with one half preserved for histology and the other half used to conduct flow cytometry. To prepare samples for flow cytometry, tumor chunks of 2-3 mm^3 were incubated in an enzyme cocktail (1 mg/mL collagenase type IV, 2000 U DNase type IV, 0.1 mg/mL hyaluronidase type V in 1×HBSS) for 1 hour, and the digests passed through a 70 μm nylon filter. Cells were pelleted and washed in HBSS.
Cells were diluted in cell staining buffer, pelleted by centrifuging at 350×g for 5 minutes, and washed twice. […]

GSK3 = settings: values provided by chemical vendors (Cayman Chemical, Selleck Chemicals); cited from earlier work
Tbx21 expression = assay: RT-qPCR of Tbx21 in anti-CD3 activated primary murine T-cells; assay type: cell-based, C57BL/6 mouse; settings: 10 μM, 72 hours, normalized against Gapdh
Procedure: as §1, §2, §3, §4

MC38 colon cancer = assay: MC38 syngeneic colon cancer model, subcutaneous tumor growth; assay type: in vivo, C57BL/6 mice
Procedure: Treatment was repeated every three days for a total of three administrations. Mice were sacrificed four days after the final treatment. The study was executed as two separate experiments, using animal group sizes of n=6 and n=9, respectively. […] The first set of analyses was performed on the tumor volume growth curves (FIG. 5, panel A), impact on final tumor volumes (FIG. 5, panel B) and tumor weight (FIG. 5, panel C) at the time of sacrifice.
MC38 cells, stably transfected with a luciferase vector, were inoculated into the right flank of C57BL/6 mice, using 0.7×10^6 cells in 40% Matrigel 1×PBS solution. Tumors were allowed to grow to a size of ˜50 mm^3 prior to the initiation of treatment, approximately 14 days after initial inoculation. Mice with outlier tumor sizes (either too small or too large) were excluded from further study. The remaining animals were randomly assigned to the different treatment groups. Mice were treated with three injections, set three days apart, and were sacrificed 4 days after the final treatment administration. […] Two separate experiments were performed, the first with n=6 mice per group and the second with n=9 animals.

## N#Cc1ccc2[nH]c(O)c(-c3ccc(CN4CCOCC4)cn3)c2c1 [AZD1080]
Pdcd1 expression
  reduction in Pdcd1 mRNA expression: ~6 fold
[1]
  % of CD8/PD-1+ cells in the tumor digests: did not impact
GSK3
  IC50: 31 nM
Tbx21 expression
  Tbx21 mRNA expression: increased
MC38 colon cancer; MC38, three administrations, n=15 per group
  number of tumor-free animals at time of sacrifice (out of 15): 3/15
MC38 colon cancer; three administrations every three days, sAZD1080 5 mg/kg IV, free AZD1080 5 mg/kg IP, SB415286 8 mg/kg IP, anti-PD-1 4 mg/kg IP, n=15
  tumor growth inhibition in MC38 (significance vs saline): no significant effect on tumor growth inhibition
